Tests used:
[1] = test system: aconitin-induced arrhythmia; details: mouse, in vivo, po, 100 mg/kg
in vivo = details: mouse, ip
[2] = test system: aconitin-induced arrhythmia; experiment: animal or person; details: Mus musculus, ip, read-out: Delay in time of appearance of arrhythmia
[3] = test system: sympathic nervious system; details: Bull. Soc. Chim. France 1940, 603; cited from earlier work
[4] = J. Med. Chem. 6, 705 (1963); cited from earlier work

SMILES: Cc1cccc(C)c1NC(C)CN.Cl.Cl (stereo not drawn) [1-Amino-2-(2,6-dimethylphenyl-amino)-propane dihydrochloride]
- Delay in the appearance time of arrhythmia [1]: +41.0%
- LD50 (in vivo): 155 mg/kg
- change in vivo at 25 mg/kg [2]: 16.6%
- change in vivo at 50 mg/kg [2]: 60%
- change in vivo at 100 mg/kg [2]: 127%

SMILES: CC(CN)Nc1ccccc1 (stereo not drawn) [1-amino-2-phenylamino-propane]
- acting on the sympathetic nervous system [3]: acting on the sympathic nervious system

SMILES: Cc1cccc(C)c1NCCN [N-(2,6-dimethylphenyl)-ethylenediamine]
- hypotensive effects [4]: hypotensive effects

SMILES: CCN(CCN)c1c(C)cccc1C [N-ethyl-N-(2,6-dimethylphenyl)-ethylenediamine]
- hypotensive effects [4]: hypotensive effects

SMILES: Cc1cccc(C)c1N(C)CCN [N-methyl-N-(2,6-dimethylphenyl)-ethylenediamine]
- hypotensive effects [4]: hypotensive effects
